# System: Plasmodium berghei
# Assay: Luciferase/luciferin-expressing antifolate-resistant parasites were used to infect a culture of HepG2 cells that were pre-incubated with compounds. Infected hepatocytes emit light due to the luciferase reaction. Assay results are presented as the percent inhibition of light emission compared to control. […]
# Type: functional
# Details: sporozoite; for IC90: read-out: LUCIFERASE INFECTION ASSAY - IC90
Compound,IC90,further results
Nc1cccc2c1C(=O)N(C(=O)/C=C/c1cccc(F)c1)C2=O,> 10000 nM,"IC50 (HEPG2TOX_HILL_SLOPE 0.728, HEPG2TOX_R_SQUARED 0.696, PBLUC_HILL_SLOPE 1.8, PBLUC_R_SQUARED 0.344, read-out: LUCIFERASE INFECTION ASSAY - IC50): 8070 nM"
CC(C)c1ccc(/C=C/C2=NNC(=O)CC2)cc1,> 13600 nM,"IC50 (HEPG2TOX_HILL_SLOPE 0.687, HEPG2TOX_R_SQUARED 0.88, PBLUC_HILL_SLOPE 0.307, PBLUC_R_SQUARED 0.14, read-out: LUCIFERASE INFECTION ASSAY - IC50): > 13600 nM"
COc1ccc(/C=C/C2=NNC(=O)CC2)cc1,> 14300 nM,"IC50 (HEPG2TOX_HILL_SLOPE 0.708, HEPG2TOX_R_SQUARED 0.9, read-out: LUCIFERASE INFECTION ASSAY - IC50): > 14300 nM"
COc1ccc(Nc2cc(C)nc(-n3nc(C)cc3C)n2)cc1,4190 nM,"IC50 (HEPG2TOX_HILL_SLOPE 0.695, HEPG2TOX_R_SQUARED 0.68, PBLUC_HILL_SLOPE 2.57, PBLUC_R_SQUARED 0.661, read-out: LUCIFERASE INFECTION ASSAY - IC50): 1780 nM"
Oc1cc(-c2ccccc2)nc2ccccc12,307 nM,"IC50 (HEPG2TOX_HILL_SLOPE 0.704, HEPG2TOX_R_SQUARED 0.901, PBLUC_HILL_SLOPE 3.71, PBLUC_R_SQUARED 0.852, read-out: LUCIFERASE INFECTION ASSAY - IC50): 170 nM"
c1cncc(-c2cnc3ccc(-c4ccoc4)nn23)c1,> 10000 nM,"IC50 (HEPG2TOX_HILL_SLOPE 0.706, HEPG2TOX_R_SQUARED 0.847, PBLUC_HILL_SLOPE 1.15, PBLUC_R_SQUARED 0.722, read-out: LUCIFERASE INFECTION ASSAY - IC50): 1630 nM"
Cc1sc2ncnc(NC(C)c3ccc(-n4ccnc4)cc3)c2c1C (centres undefined),> 10000 nM,"IC50 (HEPG2TOX_HILL_SLOPE 0.71, HEPG2TOX_R_SQUARED 0.913, PBLUC_HILL_SLOPE 1.13, PBLUC_R_SQUARED 0.519, read-out: LUCIFERASE INFECTION ASSAY - IC50): 2600 nM"
FC(F)(F)Oc1cccc(-c2nnc3ccc(-c4cccc5ncccc45)cn23)c1,2550 nM,"IC50 (HEPG2TOX_HILL_SLOPE 0.706, HEPG2TOX_R_SQUARED 0.938, PBLUC_HILL_SLOPE 2.17, PBLUC_R_SQUARED 0.421, read-out: LUCIFERASE INFECTION ASSAY - IC50): 928 nM"
CC1(C(=O)Nc2ccncc2)CCN1Cc1ccc2ccccc2c1 (centres undefined),7130 nM,"IC50 (HEPG2TOX_HILL_SLOPE 0.704, HEPG2TOX_R_SQUARED 0.958, PBLUC_HILL_SLOPE 1.6, PBLUC_R_SQUARED 0.488, read-out: LUCIFERASE INFECTION ASSAY - IC50): 1800 nM"
CC(=O)Nc1cccc(-c2ccc3ncc(-c4ccccc4)n3n2)c1,> 10000 nM,"IC50 (HEPG2TOX_HILL_SLOPE 0.716, HEPG2TOX_R_SQUARED 0.978, PBLUC_HILL_SLOPE 1, PBLUC_R_SQUARED 0.535, read-out: LUCIFERASE INFECTION ASSAY - IC50): 3870 nM"
OCc1ccccc1-c1cn2c(-c3ccc4ncccc4c3)cnc2cn1,468 nM,"IC50 (HEPG2TOX_HILL_SLOPE 0.72, HEPG2TOX_R_SQUARED 0.902, PBLUC_HILL_SLOPE 1.49, PBLUC_R_SQUARED 0.863, read-out: LUCIFERASE INFECTION ASSAY - IC50): 107 nM"
NC(=O)c1cccc(-c2ccc3ncc(-c4cccs4)n3n2)c1,> 10000 nM,"IC50 (HEPG2TOX_HILL_SLOPE 0.701, HEPG2TOX_R_SQUARED 0.861, PBLUC_HILL_SLOPE 2.21, PBLUC_R_SQUARED 0.712, read-out: LUCIFERASE INFECTION ASSAY - IC50): 4090 nM"
COc1cncc(-c2cnc3c(Nc4cc(OC)c(OC)c(OC)c4)nccn23)c1,297 nM,"IC50 (HEPG2TOX_HILL_SLOPE 0.708, HEPG2TOX_R_SQUARED 0.654, PBLUC_HILL_SLOPE 2.45, PBLUC_R_SQUARED 0.956, read-out: LUCIFERASE INFECTION ASSAY - IC50): 121 nM"
O=C(OCc1ncc(-c2ccccc2)o1)c1cc([N+](=O)[O-])ccc1N1CCOCC1,3400 nM,"IC50 (HEPG2TOX_HILL_SLOPE 0.712, HEPG2TOX_R_SQUARED 0.947, PBLUC_HILL_SLOPE 1.1, PBLUC_R_SQUARED 0.629, read-out: LUCIFERASE INFECTION ASSAY - IC50): 465 nM"
CC(C)c1ccc2cc(C(=O)Nc3ccc4c(c3)NC(=O)CO4)[nH]c2c1,2970 nM,"IC50 (HEPG2TOX_HILL_SLOPE 0.683, HEPG2TOX_R_SQUARED 0.922, PBLUC_HILL_SLOPE 2.26, PBLUC_R_SQUARED 0.558, read-out: LUCIFERASE INFECTION ASSAY - IC50): 1130 nM"
O=C(CCc1c(-c2ccc(F)cc2)[nH]c2ccc(F)cc12)NCCN1CCOCC1,> 10000 nM,"IC50 (HEPG2TOX_HILL_SLOPE 0.681, HEPG2TOX_R_SQUARED 0.0413, read-out: LUCIFERASE INFECTION ASSAY - IC50): > 10000 nM"

Compound,IC90,further results
Clc1ccccc1-c1nc2ccnc(NCCc3ccccc3)c2[nH]1,7970 nM,"IC50 (HEPG2TOX_HILL_SLOPE 0.707, HEPG2TOX_R_SQUARED 0.751, PBLUC_HILL_SLOPE 2.17, PBLUC_R_SQUARED 0.665, read-out: LUCIFERASE INFECTION ASSAY - IC50): 2900 nM"
Cc1nn2c(=O)c(Cc3ccccc3)c(C)[nH]c2c1-c1ccc(F)cc1,1300 nM,"IC50 (HEPG2TOX_HILL_SLOPE 0.716, HEPG2TOX_R_SQUARED 0.984, PBLUC_HILL_SLOPE 2.69, PBLUC_R_SQUARED 0.765, read-out: LUCIFERASE INFECTION ASSAY - IC50): 576 nM"
COC(=O)c1c(-c2c(Cl)cccc2Cl)noc1CC=Nc1ccc(C(=O)O)cc1,> 7620 nM,"IC50 (HEPG2TOX_HILL_SLOPE 0.693, HEPG2TOX_R_SQUARED 0.602, read-out: LUCIFERASE INFECTION ASSAY - IC50): > 7620 nM"
Cc1sc2nc3n(c(=O)c2c1C)CC/C3=C/c1cccc2ccccc12,> 10000 nM,"IC50 (HEPG2TOX_HILL_SLOPE 0.688, HEPG2TOX_R_SQUARED 0.114, PBLUC_HILL_SLOPE 1.25, PBLUC_R_SQUARED 0.514, read-out: LUCIFERASE INFECTION ASSAY - IC50): 3000 nM"
CSc1sc(C(=O)N/N=C/c2ccccc2Cl)c2c1C(O)CCC2 (centres undefined),> 8660 nM,"IC50 (HEPG2TOX_HILL_SLOPE 0.679, HEPG2TOX_R_SQUARED 0.968, PBLUC_HILL_SLOPE 1.34, PBLUC_R_SQUARED 0.516, read-out: LUCIFERASE INFECTION ASSAY - IC50): 2100 nM"
Cc1ccccc1-c1cn2c(-c3ccc(CO)cc3)cnc2cn1,10400 nM,"IC50 (HEPG2TOX_HILL_SLOPE 0.675, HEPG2TOX_R_SQUARED 0.753, PBLUC_HILL_SLOPE 1.37, PBLUC_R_SQUARED 0.689, read-out: LUCIFERASE INFECTION ASSAY - IC50): 2100 nM"
Cc1c(Cl)c(=O)[nH]c2ccccc12,> 17000 nM,"IC50 (HEPG2TOX_HILL_SLOPE 0.732, HEPG2TOX_R_SQUARED 0.944, PBLUC_HILL_SLOPE 0.944, PBLUC_R_SQUARED 0.141, read-out: LUCIFERASE INFECTION ASSAY - IC50): > 17000 nM"
Cc1ccc(S(=O)(=O)N2CCN(C(=O)C3CCN(c4nc5ccccc5o4)CC3)CC2)cc1C,2620 nM,"IC50 (HEPG2TOX_HILL_SLOPE 0.685, HEPG2TOX_R_SQUARED 0.962, PBLUC_HILL_SLOPE 3.7, PBLUC_R_SQUARED 0.71, read-out: LUCIFERASE INFECTION ASSAY - IC50): 1450 nM"
c1ccc2c(NCc3ccc(N4CCCC4)nc3)ncnc2c1,3160 nM,"IC50 (HEPG2TOX_HILL_SLOPE 0.683, HEPG2TOX_R_SQUARED 0.958, PBLUC_HILL_SLOPE 1.41, PBLUC_R_SQUARED 0.701, read-out: LUCIFERASE INFECTION ASSAY - IC50): 668 nM"
COc1ccc(C(=O)N2CCC(Cc3ccccc3)CC2)c(O)c1,> 10000 nM,"IC50 (HEPG2TOX_HILL_SLOPE 0.725, HEPG2TOX_R_SQUARED 0.627, PBLUC_HILL_SLOPE 3.95, PBLUC_R_SQUARED 0.49, read-out: LUCIFERASE INFECTION ASSAY - IC50): 7880 nM"
CN(C)c1nc(N)nc(CN(Cc2nc(N)nc(N(C)C)n2)C23CC4CC(CC(C4)C2)C3)n1,149 nM,"IC50 (HEPG2TOX_HILL_SLOPE 0.693, HEPG2TOX_R_SQUARED 0.937, PBLUC_HILL_SLOPE 2.94, PBLUC_R_SQUARED 0.84, read-out: LUCIFERASE INFECTION ASSAY - IC50): 70.7 nM"
Cc1nc(NCCNc2cnccn2)c2c(-c3cccs3)csc2n1,5980 nM,"IC50 (HEPG2TOX_HILL_SLOPE 0.714, HEPG2TOX_R_SQUARED 0.963, PBLUC_HILL_SLOPE 3.5, PBLUC_R_SQUARED 0.488, read-out: LUCIFERASE INFECTION ASSAY - IC50): 3190 nM"
CC(Nc1ncnc2sccc12)c1ccc(-n2cncn2)cc1 (centres undefined),> 10000 nM,"IC50 (HEPG2TOX_HILL_SLOPE 0.68, HEPG2TOX_R_SQUARED 0.808, PBLUC_HILL_SLOPE 0.888, PBLUC_R_SQUARED 0.682, read-out: LUCIFERASE INFECTION ASSAY - IC50): 1950 nM"
CC(=O)Nc1cccc(-c2ccc3ncc(-c4cccs4)n3n2)c1,> 10000 nM,"IC50 (HEPG2TOX_HILL_SLOPE 0.699, HEPG2TOX_R_SQUARED 0.927, PBLUC_HILL_SLOPE 0.967, PBLUC_R_SQUARED 0.554, read-out: LUCIFERASE INFECTION ASSAY - IC50): 2810 nM"
COc1cc(-c2cc(-c3cc4ccccc4s3)cnc2N)cc(OC)c1OC,> 8410 nM,"IC50 (HEPG2TOX_HILL_SLOPE 0.717, HEPG2TOX_R_SQUARED 0.312, PBLUC_HILL_SLOPE 43.5, PBLUC_R_SQUARED 0.0859, read-out: LUCIFERASE INFECTION ASSAY - IC50): 8370 nM"
COc1cc(-c2cc(-c3ccc(S(C)(=O)=O)cc3)cnc2N)ccc1O,1100 nM,"IC50 (HEPG2TOX_HILL_SLOPE 0.691, HEPG2TOX_R_SQUARED 0.303, PBLUC_HILL_SLOPE 2.60E+03, PBLUC_R_SQUARED 0.903, read-out: LUCIFERASE INFECTION ASSAY - IC50): 1100 nM"

# Source: ChEMBL document CHEMBL4483862, “Open-source discovery of chemical leads for next-generation chemoprotective antimalarials” (2018)
